Measurements published in PMC5423902, “CXCL9-Derived Peptides Differentially Inhibit Neutrophil Migration In Vivo through Interference with Glycosaminoglycan Interactions” (Frontiers in Immunology, 2017).

Key:
[1] = tested on: MSU crystal-induced neutrophil migration; assay: MSU crystal-induced gout in mice (neutrophil migration to knee); assay type: in vivo, mouse (C57BL/6); conditions: 66 µg peptide i.v.; MSU crystals 100 µg, C57BL/6, 3 h, n ≥ 5; Figure 5
Experimental: Monosodium urate crystals were prepared as described previously ([42], [49]) and were injected (100 µg in 10 µl) in the tibiofemoral knee joint of C57Bl/6 mice. A group of mice received CXCL9 peptide or vehicle intravenously and the cells present in the tibiofemoral articulation were harvested 3 h after MSU crystal administration. The total and differential leukocyte counts were determined.
Figure 5 CXCL9(74-93) inhibits CXCL8-induced but not monosodium urate (MSU) crystal-induced neutrophil migration to the knee cavity. CXCL8(1-77) (1 µg) or MSU crystals (100 µg) were injected into the tibiofemoral articulation of C57BL/6 mice (n ≥ 5). Simultaneously, 66 µg of CXCL9(74-93) was injected intravenously and 3 h post injection the number of total cells (A) and neutrophils (B) were evaluated by washing the cavity and differentially counting the leukocyte subtypes on May-Grunwald-Giemsa-stained cytospins. The total numbers of leukocytes and neutrophils are shown for every individual mouse, and the horizontal lines denote the median number of cells. To detect statistically significant differences, the Mann–Whitney U-test was carried out (*p < 0.05; **p < 0.01; ***p < 0.005).

[2] = tested on: CXCL8(1-77) binding to heparin; conditions: compared with CXCL9(74-103) missing 5 to 12 NH2-terminal residues; cited from earlier work
Experimental: To further investigate the role of the COOH-terminal amino acids, the ability of CXCL9(74-93) to inhibit binding of chemokines to heparin and HS was evaluated. CXCL9(74-93) and CXCL9(74-103) together with a COOH-terminal peptide of one of the strongest GAG-binding chemokines, namely, CXCL4(47-70), were compared in an ELISA-like assay to compete with CXCL8 for heparin bind ...

[3] = tested on: neutrophil adhesion to the endothelium; assay: CXCL8-induced neutrophil adhesion in the murine cremaster muscle model; assay type: in vivo, mouse (C57Bl/6J); conditions: 108 µg peptide i.v., Figure 8
Experimental: Mice were anesthetized by intraperitoneal injection of 200 mg/kg ketamine (Bayer Inc. Animal Health) and 10 mg/kg xylazine (Bimeda-MTC). After anesthesia, the right jugular vein was cannulated for maintenance of anesthesia and to permit the delivery of the fluorescence-labeled antibodies. Mice were injected intravenously (via jugular vein) with either saline or CXCL9(74-103) 5 min prior to an intrascrotal injection of 1 or 3 µg CXCL8. The animals were placed on a water-heated operating table to maintain body temperature at ~37°C. The depth of anesthesia was controlled by regularly monitoring peripheral reflexes. The cremaster muscle was prepared as previously described ([50]). […] Single unbranched cremasteric venules with a diameter of ~25–40 μm were selected and their blood flow was recorded during a 5 min period. […] A 512 × 512 pixel back-thinned EMCCD camera (C9100-13, Hamamatsu, Bridgewater, NJ, USA) was used for fluorescence detection. […] Images captured using the spinning disk were processed and analyzed in Volocity 4.20. Periods of 5 min/field of view were recorded at 45, 60, and 90 min after CXCL8 administration. A neutrophil was considered to be adherent if it remained stationary for at least 30 s, and total neutrophil adhesion was quantified as the number of adherent cells within a 100-µm length of venule. […]

[4] = tested on: CXCL8-induced neutrophil migration; conditions: CXCL8 into tibiofemoral articulation of C57BL/6 mice; cited from earlier work
[5] = tested on: MSU crystal-induced neutrophil migration; conditions: murine model; cited from earlier work
Text: Because of their essential role for the migration of leukocytes, chemokines and their GPCRs can serve as potential targets for the development of new anti-inflammatory drugs ([24]–[26]). Several neutralizing ligands or antibodies, modified chemokines or small molecules have been developed as antagonists ([27]–[30]). However, only two chemokine receptor antagonists are currently used as therapeutics, namely, Maraviroc (a CCR5 antagonist) and AMD3100 (a CXCR4 antagonist) ([31], [32]). Remarkably, these antagonists are not used as anti-inflammatory drugs, but, respectively, as an inhibitor of hum ...

| Substance | inhibition of MSU crystal-induced neutrophil migration to the joint [1] | competition with CXCL8 for heparin binding [2] | adherence of neutrophils to the endothelium ([3]; 1 µg CXCL8 intrascrotal) | adherence of neutrophils to the endothelium ([3]; 3 µg CXCL8 intrascrotal) | inhibition of neutrophil chemotactic activity of CXCL8 in the tibiofemoral articulation [4] | inhibition of neutrophil extravasation in MSU crystal-induced gout [5] |
| --- | --- | --- | --- | --- | --- | --- |
| 74KKKQKNGKKHQKKKVLKVRK93 [CXCL9(74-93), COOH-terminal peptide of CXCL9 lacking the 10 COOH-terminal amino acids of CXCL9(74-103)] | could not inhibit MSU crystal-induced neutrophil migration to the joint | – | – | – | – | – |
| 74KKKQKNGKKHQKKKVLKVRKSQRSRQKKTT103 [CXCL9(74-103), COOH-terminal peptide of CXCL9] | – | more potently competes with CXCL8 for binding to heparin | reduced the adherence of neutrophils to the endothelium significantly | reduced the adherence of neutrophils to the endothelium significantly | could inhibit the neutrophil chemotactic activity of CXCL8 in vivo | able to inhibit neutrophil extravasation |
